pIC50: −log10 of the molar value. Counter-ions that a name gives are not always drawn.

This is an account of results in patent US7223767B2, “Tetrahydroquinazolines and dihydrocyclopentapyrimidines as CRF antagonists” (Roche Palo Alto LLC, priority 2003, dated 2007).

The target of one data set is T1, CRF1 receptor (Homo sapiens, UniProt P34998).
T1 construct: Cell membranes are prepared according the method of Dieterich and DeSouza (1996); endogenous in cells; host or cells: IMR-32 human neuroblastoma cells (membranes)
T1 sequence (P34998 24-415): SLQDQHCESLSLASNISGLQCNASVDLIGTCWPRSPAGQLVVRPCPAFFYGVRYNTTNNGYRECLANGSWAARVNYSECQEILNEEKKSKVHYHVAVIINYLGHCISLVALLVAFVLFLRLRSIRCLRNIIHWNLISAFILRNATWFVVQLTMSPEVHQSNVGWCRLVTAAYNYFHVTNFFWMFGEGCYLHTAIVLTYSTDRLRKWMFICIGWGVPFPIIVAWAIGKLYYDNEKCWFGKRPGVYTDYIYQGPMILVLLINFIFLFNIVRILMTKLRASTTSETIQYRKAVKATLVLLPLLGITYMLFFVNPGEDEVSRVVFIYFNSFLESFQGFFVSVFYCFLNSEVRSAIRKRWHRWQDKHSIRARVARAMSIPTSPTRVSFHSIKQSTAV
The experiment in a line: CRF1 Receptor Binding Assay (competition binding, IMR-32 cell membranes). As to conditions: CRF1 affinity; [125I]Tyr0-ovine CRF, human IMR-32 neuroblastoma cell membranes. The protocol:
Human IMR-32 neuroblastoma cells are grown to 80% confluence in MEM medium containing 10% heat-inactivated FBS, 1 mM Sodium Pyruvate, and 0.1 mM nonessential amino acids. Cell membranes are prepared according the method of Dieterich and DeSouza (1996). The cells (˜5E+9) are resuspended in 10 volumes of wash buffer (5 mM Tris HCl, 10 mM MgCl2, 2 mM EGTA, pH 7.4 at RT), homogenized with a Polytron, and then centrifuged at 45,000 G for 20 min at 4° C. The membrane pellets are washed twice with wash buffer (45,000 G for 20 min at 4° C.) and then resuspended (50 mM Tris HCl, 10 mM MgCl2, 2 mM EGTA, pH 7.4 at RT). Protein concentration is determined using Pierce reagents and BSA as standard. Aliquots of 1-1.5 mL are stored at −80° C. until binding assay.
The competition binding assay is performed in a final volume of 250 μl which contains assay buffer (50 mM Tris-HCl, 10 MM MgCl2, 2 mM EGTA, 0.2% BSA, 0.1 mM bacitracin and 100 kIU/mL aprotinin pH 7.2 at R.T.), 0.05 nM [^125I]Tyr^0-ovine CRF (Du Pont New England Nuclear), 50 μg of membrane protein, and test compound at various concentrations. Non-specific binding is determined with 1 μM hCRF. Binding reactions are terminated after 2 hr incubation at 25° C. by filtering through 96-w GF/C filter plate using a Packard Harvester (Filtermate 196). The 96-w filter plate is pre-treated with 0.3% polyethyleneimine and pre-washed with washing buffer (50 mM Tris-HCl, 10 mM MgCl2, 2 mM EGTA, 0.2% BSA, pH 7.2 at 4° C.). Unbound radioactivity is removed by four rapid washes (0.8 ml/well) with wash buffer. The radioactivity is quantified using a Packard TopCount. Data are analyzed using non-linear iterative curve fitting to obtain IC50 and Hill slope values. PKi values are derived from pIC50 values (−log of IC50).

Compound `CCCC1(CCC)CCCc2c(Nc3ccc(Cl)cc3Cl)nc(C)nc21` (as salt: hydrochloride) [Compound 11, (2,4-Dichloro-phenyl)-(2-methyl-8,8-dipropyl-5,6,7,8-tetra-hydro-quinazolin-4-yl)-amine] yielded a melting point of 238.3 to 243.9 °C. For `CCCN(CC1CC1)c1nc(C)nc2c1CCC[C@@]2(C)c1ccccc1` [Compound 2, Cyclopropylmethyl-((S)-2,8-dimethyl-8-phenyl-5,6,7,8-tetra-hydro-quinazolin-4-yl)-propyl-amine], the pIC50 at CRF1 receptor was 6.28. The compound `CCCN(CC1CC1)c1nc(C)nc2c1CCCC2(C)c1ccc(Cl)cc1` (stereo not drawn) [Compound 4, [8-(4-chloro-phenyl)-2,8-dimethyl-5,6,7,8-tetra-hydro-quinazolin-4-yl]-cyclopropylmethyl-pro-pyl-amine] had a pIC50 at CRF1 receptor of 5.76. Still for that read-out and setting: to `COCCN(CCOC)c1nc(C)nc2c1CCCC2c1ccc(Cl)cc1` (stereo not drawn) [Compound 5, [8-(4-Chloro-phenyl)-2-methyl-5,6,7,8-tetrahydro-quina-zolin-4-yl]-bis-(2-methoxy-ethyl)-amine] belongs 4.54; to `CCCN(CC1CC1)c1nc(C)nc2c1CCCC2c1ccccc1` (stereo not drawn) [Compound 1, Cyclopropylmethyl-(2-methyl-8-phenyl-5,6,7,8-tetra-hydro-quinazolin-4-yl)-propyl-amine], 5.55. In the case of `COCCN(CCOC)c1nc(C)nc2c1CCCC2(C)c1ccc(Cl)cc1` (stereo not drawn) [Compound 6, [8-(4-Chloro-phenyl)-2,8-dimethyl-5,6,7,8-tetra-hydro-quinazolin-4-yl]-bis-(2-methoxy-ethyl)-a-mine], the negative logarithm of the IC50 (pIC50) on CRF1 receptor is 4.93. The same measure, in the same setting: as for `CCCN(CC1CC1)c1nc(C)nc2c1CCC2(C)c1ccc(C)cc1C` (stereo not drawn) [Compound 10, Cyclopropylmethyl-[7-(2,4-dimethyl-phenyl)-2,7-di-methyl-6,7-dihydro-5H-cyclopentapyrimidin-4-yl]-pro-pyl-amine], the figure is 6.18; as for `CCCN(CC1CC1)c1nc(C)nc2c1CCC2c1ccc(C)cc1C` (stereo not drawn) [Compound 9, Cyclopropylmethyl-[7-(2,4-dimethyl-phenyl)-2-meth-yl-6,7-dihydro-5H-cyclopentapyrimidin-4-yl]-pro-pyl-amine], 5.95. Same read-out and setting: as for `CCCN(CC1CC1)c1nc(C)nc2c1CCCC2c1ccc(Cl)cc1` (stereo not drawn) [Compound 3, [8-(4-Chloro-phenyl)-2-methyl-5,6,7,8-tetrahydro-quina-zolin-4-yl]-cyclopropylmethyl-propyl-amine], the figure is 5.63.

The melting point is the temperature of the solid-liquid transition. Broadly, the pIC50 is −log10 of the IC50, conventionally taken in molar units. Low values mean a high IC50, high ones a low IC50.
